According to patent US9023789B2, “Amylin analogs and pharmaceutical compositions thereof” (Novo Nordisk A/S, priority 2012, dated 2015):
Numbered stars: 1 amine (or outer) side, 2 acyl side, 3 side chain; on linkers, the order of the positions; unused ones are H or OH. Bridge positions count the residues as written; N and C are the ends. Side chains are listed from the residue outwards. Peptide text beside a SMILES is read from it. * marks the point of attachment. C20 diacid = O=C(O)CCCCCCCCCCCCCCCCCCC(=O)*; γGlu = O=C(O)[C@H](CCC(=O)[*:2])N[*:1]; AEEA = NCCOCCOCC(=O)O

Assays:
rat calcitonin receptor = target: T1, rat calcitonin receptor (Rattus norvegicus, UniProt P32214); test: ASSAY (VIII) binding to the rat calcitonin receptor; details: Table 7, read-out: rCTR bind IC50
T1 construct: expressed in transfected cells; host or cells: BHK tk'ts 13 (transient, FuGENE 6), membranes
T1 sequence (P32214 25-479 isoform P32214-2 limits assumed): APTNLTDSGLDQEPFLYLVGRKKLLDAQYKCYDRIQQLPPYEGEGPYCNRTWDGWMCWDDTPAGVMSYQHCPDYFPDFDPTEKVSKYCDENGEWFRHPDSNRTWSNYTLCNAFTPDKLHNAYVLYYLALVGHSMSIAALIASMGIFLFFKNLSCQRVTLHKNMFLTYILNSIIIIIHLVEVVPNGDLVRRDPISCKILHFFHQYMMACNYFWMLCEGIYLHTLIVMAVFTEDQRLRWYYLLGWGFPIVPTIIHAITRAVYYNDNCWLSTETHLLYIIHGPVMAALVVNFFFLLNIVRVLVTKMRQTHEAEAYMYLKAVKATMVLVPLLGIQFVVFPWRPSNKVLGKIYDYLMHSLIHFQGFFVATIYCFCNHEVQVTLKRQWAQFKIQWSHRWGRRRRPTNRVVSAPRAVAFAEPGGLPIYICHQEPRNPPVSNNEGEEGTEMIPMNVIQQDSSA
Summary of the method: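 Rat calcitonin receptor is expressed transiently in BHK tk′ts 13 cells cultured in DMEM with 10% FBS. Roughly two days (approximately 48 hours) post-transfection, cells are harvested for membrane preparation.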

[1] = ASSAY (III) ThT fibrillation assay for physical stability; format: physicochemical
Summary of the method: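 Formulations with 1 μM ThT, pH adjusted as required, incubated at 37 °C with 960 rpm orbital shaking; fluorescence (ex 444/em 485 nm) read every 20 min. Fibrillation reported as mean ThT fluorescence ± SD of 4–8 replicates at time points; polypeptide concentration measured by reverse-phase HPLC before and after, post-centrifugation.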

[2] = target: T2, human amylin receptor (membranes from Amylin 3(a)/CRE-luc cells) (Homo sapiens, UniProt O60896+P30988); test: ASSAY (V) binding to the human amylin receptor (SPA, 125I-rat amylin); details: for IC50: Table 4, read-out: hAmylin-R bind IC50;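 for all read-outs here: competition binding of cell membranes (35 ng/µL) mixed with SPA beads in 384-well plates at 40 µL total volume, read by scintillation counting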
T2 construct: expressed in transfected cells
T2 sequence (P30988 25-474): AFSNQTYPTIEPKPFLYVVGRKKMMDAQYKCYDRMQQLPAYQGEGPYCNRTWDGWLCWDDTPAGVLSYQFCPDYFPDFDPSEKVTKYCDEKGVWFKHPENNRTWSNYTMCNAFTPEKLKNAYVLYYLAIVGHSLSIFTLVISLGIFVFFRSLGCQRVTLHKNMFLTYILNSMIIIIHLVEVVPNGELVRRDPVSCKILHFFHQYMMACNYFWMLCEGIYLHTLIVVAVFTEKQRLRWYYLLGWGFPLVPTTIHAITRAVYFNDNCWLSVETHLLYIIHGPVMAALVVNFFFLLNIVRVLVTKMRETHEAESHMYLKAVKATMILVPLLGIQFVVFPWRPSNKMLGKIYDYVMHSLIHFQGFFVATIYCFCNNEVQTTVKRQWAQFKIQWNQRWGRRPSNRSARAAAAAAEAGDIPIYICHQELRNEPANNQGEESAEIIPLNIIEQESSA
T2 sequence (O60896 24-148 partner): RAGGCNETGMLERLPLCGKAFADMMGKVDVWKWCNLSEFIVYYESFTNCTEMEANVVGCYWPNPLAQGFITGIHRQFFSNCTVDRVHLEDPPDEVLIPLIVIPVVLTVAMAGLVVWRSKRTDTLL

[3] = Table 5, selectivity, hCTR bind IC50 / hAmylin-R bind IC50
[4] = Table 5a, selectivity, hCTR bind IC50 / hAmylin-R bind IC50
[5] = Table 5b, selectivity, hCTR bind IC50 / hAmylin-R bind IC50
[6] = Table 5c, selectivity, hCTR bind IC50 / hAmylin-R bind IC50
[7] = Table 7, human binding selectivity, included for comparison
[8] = Table 7a (preferred compounds), human binding selectivity, included for comparison
[9] = ratio of human calcitonin receptor binding IC50 to human amylin receptor binding IC50

Row | IC50 (rat calcitonin receptor) | ThT pH 4.0 lag time (h) [1] | IC50 [2] | Ratio hCT/hAmylin binding [2, 3] | Ratio hCT/hAmylin binding [2, 4] | Ratio hCT/hAmylin binding [2, 5] | Ratio hCT/hAmylin binding [2, 6] | Ratio hCT/hAmylin binding [2, 7] | Ratio hCT/hAmylin binding [2, 8] | Ratio hCT/hAmylin binding [2, 9] | SMILES
1 | 0.442 µM | 25 h | 0.000666 µM | 91.4 | 91.4 | 91.4 | 91.4 | 91.4 | 91.4 | 91.4 | CC[C@H](C)[C@H](NC(=O)[C@H](C)NC(=O)CNC(=O)[C@H](Cc1ccccc1)NC(=O)[C@H](CC(N)=O)NC(=O)[C@@H]1CCCN1C(=O)[C@H](CO)NC(=O)[C@H](CO)NC(=O)[C@H](Cc1c[nH]cn1)NC(=O)[C@H](CCCNC(=N)N)NC(=O)[C@H](CC(C)C)NC(=O)[C@H](Cc1ccccc1)NC(=O)[C@@H](NC(=O)[C@H](C)NC(=O)[C@H](CC(C)C)NC(=O)[C@H](CCCNC(=N)N)NC(=O)[C@H](CCC(N)=O)NC(=O)[C@@H](NC(=O)[C@H](C)NC(=O)[C@@H]1CSSC[C@H](NC(=O)[C@@H](N)CCCCNC(=O)COCCOCCNC(=O)CC[C@H](NC(=O)CCCCCCCCCCCCCCCCCCC(=O)O)C(=O)O)C(=O)N[C@@H](CC(N)=O)C(=O)N[C@@H]([C@@H](C)O)C(=O)N[C@@H](C)C(=O)N[C@@H]([C@@H](C)O)C(=O)N1)[C@@H](C)O)[C@@H](C)O)C(=O)N1CCC[C@H]1C(=O)N[C@@H](CO)C(=O)N[C@@H](CO)C(=O)N[C@H](C(=O)N1CCC[C@H]1C(=O)N[C@H](C(=O)NCC(=O)N[C@@H](CO)C(=O)N[C@@H](CC(N)=O)C(=O)N[C@H](C(=O)N[C@@H](Cc1ccc(O)cc1)C(N)=O)[C@@H](C)O)C(C)C)[C@@H](C)O [Example 75] (H-K([AEEA-γGlu-C20 diacid])CNTATCATQRLATFLRHSSPNFGAIPSSTPVGSNTY-NH2; disulfide 2-7 (inferred); N-terminus assumed)
2 | 0.0906 µM | 13 h | 0.000602 µM | 60.7 | 60.7 | 60.7 | 60.7 | 60.7 | 60.7 | 60.7 | CC[C@H](C)[C@H](NC(=O)[C@H](C)NC(=O)CNC(=O)[C@H](Cc1ccccc1)NC(=O)[C@H](CC(N)=O)NC(=O)[C@@H]1CCCN1C(=O)[C@H](CO)NC(=O)[C@H](CO)NC(=O)[C@H](Cc1c[nH]cn1)NC(=O)[C@H](CCCNC(=N)N)NC(=O)[C@H](CC(C)C)NC(=O)[C@H](Cc1ccccc1)NC(=O)[C@H](CC(N)=O)NC(=O)[C@H](C)NC(=O)[C@H](CC(C)C)NC(=O)[C@H](CCCNC(=N)N)NC(=O)[C@H](CCC(N)=O)NC(=O)[C@@H](NC(=O)[C@H](C)NC(=O)[C@@H]1CSSC[C@H](NC(=O)[C@@H](N)CCCCNC(=O)COCCOCCNC(=O)CC[C@H](NC(=O)CCCCCCCCCCCCCCCCCCC(=O)O)C(=O)O)C(=O)N[C@@H](CC(N)=O)C(=O)N[C@@H]([C@@H](C)O)C(=O)N[C@@H](C)C(=O)N[C@@H]([C@@H](C)O)C(=O)N1)[C@@H](C)O)C(=O)N1CCC[C@H]1C(=O)N[C@@H](CO)C(=O)N[C@@H](CO)C(=O)N[C@H](C(=O)N[C@@H](CC(N)=O)C(=O)N[C@H](C(=O)NCC(=O)N[C@@H](CCCNC(=N)N)C(=O)N[C@@H](CC(N)=O)C(=O)N[C@H](C(=O)N[C@@H](Cc1ccc(O)cc1)C(N)=O)[C@@H](C)O)C(C)C)[C@@H](C)O [Example 78] (H-K([AEEA-γGlu-C20 diacid])CNTATCATQRLANFLRHSSPNFGAIPSSTNVGRNTY-NH2; disulfide 2-7 (inferred))
3 | 0.0355 µM | 21 h | 0.00079 µM | 46.1 | 46.1 | 46.1 | 46.1 | 46.1 | 46.1 | 46.1 | CC[C@H](C)[C@H](NC(=O)[C@H](C)NC(=O)CNC(=O)[C@H](Cc1ccccc1)NC(=O)[C@H](CC(N)=O)NC(=O)[C@@H]1CCCN1C(=O)[C@H](CO)NC(=O)[C@H](CO)NC(=O)[C@H](Cc1c[nH]cn1)NC(=O)[C@H](CCCNC(=N)N)NC(=O)[C@H](CC(C)C)NC(=O)[C@H](Cc1ccccc1)NC(=O)[C@H](CC(N)=O)NC(=O)[C@H](C)NC(=O)[C@H](CC(C)C)NC(=O)[C@H](CCCNC(=N)N)NC(=O)[C@H](CCC(N)=O)NC(=O)[C@@H](NC(=O)[C@H](C)NC(=O)[C@@H]1CSSC[C@H](NC(=O)[C@@H](N)CCCCNC(=O)CC[C@H](NC(=O)CCCCCCCCCCCCCCCCCCC(=O)O)C(=O)O)C(=O)N[C@@H](CC(N)=O)C(=O)N[C@@H]([C@@H](C)O)C(=O)N[C@@H](C)C(=O)N[C@@H]([C@@H](C)O)C(=O)N1)[C@@H](C)O)C(=O)N1CCC[C@H]1C(=O)N[C@@H](CO)C(=O)N[C@@H](CO)C(=O)N[C@H](C(=O)N[C@@H](CC(N)=O)C(=O)N[C@H](C(=O)NCC(=O)N[C@@H](CCCNC(=N)N)C(=O)N[C@@H](CC(N)=O)C(=O)N[C@H](C(=O)N[C@@H](Cc1ccc(O)cc1)C(N)=O)[C@@H](C)O)C(C)C)[C@@H](C)O [Example 79] (H-K([γGlu-C20 diacid])CNTATCATQRLANFLRHSSPNFGAIPSSTNVGRNTY-NH2; disulfide 2-7 (inferred); N-terminus assumed)
4 | 0.143 µM | 12 h | 0.000636 µM | 139.6 | 139.6 | 139.6 | 139.6 | 139.6 | 139.6 | 139.6 | CC[C@H](C)[C@H](NC(=O)[C@H](C)NC(=O)CNC(=O)[C@H](Cc1ccccc1)NC(=O)[C@H](CC(N)=O)NC(=O)[C@@H]1CCCN1C(=O)[C@H](CO)NC(=O)[C@H](CO)NC(=O)[C@H](Cc1c[nH]cn1)NC(=O)[C@H](CCCNC(=N)N)NC(=O)[C@H](CC(C)C)NC(=O)[C@H](Cc1ccccc1)NC(=O)[C@H](CCCNC(=N)N)NC(=O)[C@H](C)NC(=O)[C@H](CC(C)C)NC(=O)[C@H](CCCNC(=N)N)NC(=O)[C@H](CCC(N)=O)NC(=O)[C@@H](NC(=O)[C@H](C)NC(=O)[C@@H]1CSSC[C@H](NC(=O)[C@@H](N)CCCCNC(=O)COCCOCCNC(=O)CC[C@H](NC(=O)CCCCCCCCCCCCCCCCCCC(=O)O)C(=O)O)C(=O)N[C@@H](CC(N)=O)C(=O)N[C@@H]([C@@H](C)O)C(=O)N[C@@H](C)C(=O)N[C@@H]([C@@H](C)O)C(=O)N1)[C@@H](C)O)C(=O)N1CCC[C@H]1C(=O)N[C@@H](CO)C(=O)N[C@@H](CO)C(=O)N[C@H](C(=O)N[C@@H](CC(N)=O)C(=O)N[C@H](C(=O)NCC(=O)N[C@@H](CO)C(=O)N[C@@H](CC(N)=O)C(=O)N[C@H](C(=O)N[C@@H](Cc1ccc(O)cc1)C(N)=O)[C@@H](C)O)C(C)C)[C@@H](C)O [Example 82] (H-K([AEEA-γGlu-C20 diacid])CNTATCATQRLARFLRHSSPNFGAIPSSTNVGSNTY-NH2; disulfide 2-7; N-terminus assumed)
